Read-outs that look alike come from different tables or passages of the source.
Biological target: T1, XccFPR (Xanthomonas citri pv. citri, UniProt A0AAI7ZED9)
T1 sequence (A0AAI7ZED9 1-259): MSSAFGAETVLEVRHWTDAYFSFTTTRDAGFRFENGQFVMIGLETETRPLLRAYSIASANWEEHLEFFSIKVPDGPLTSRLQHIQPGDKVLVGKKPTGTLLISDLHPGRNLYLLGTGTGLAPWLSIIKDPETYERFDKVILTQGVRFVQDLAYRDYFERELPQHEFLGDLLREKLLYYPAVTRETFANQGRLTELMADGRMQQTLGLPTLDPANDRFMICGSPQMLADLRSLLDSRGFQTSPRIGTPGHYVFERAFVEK
Assay: NADPH-dependent DCPIP diaphorase activity of XccFPR, dose-response of inhibitors
Assay type: biochemical, Xanthomonas citri subsp. citri
Protocol: When assayed in regular cuvettes, the DCPIP diaphorase activity of XccFPR was determined at 25 °C using a Cary 100 (Agilent Technologies Inc., Santa Clara, CA, USA) spectrophotometer as previously established. […] Positive controls (without any hit compound) were included in every reaction set. […] The DMSO concentration was kept at 2% in all samples. All kinetic experiments were performed in triplicate. The effect of the inhibitors on Km and kcat was determined by fitting the datasets to the Michaelis-Menten model. Additionally, data were globally fit to either Lineweaver-Burk equations for uncompetitive or non-competitive inhibition, yielding Ki for each compound (Equations (1) and (2), respectively).

[1] = 25 °C, 50 mM Tris/HCl, 2% DMSO, pH 8.0, 20 nM XccFPR, 95 µM DCPIP, 50 μM NADPH
[2] = 25 °C, 50 mM Tris/HCl, 2% DMSO, pH 8.0, 20 nM XccFPR, 95 µM DCPIP, 50 μM NADPH, compound 0–800 μM
[3] = 25 °C, 2% DMSO, pH 8.0, 20 nM XccFPR, 95 µM DCPIP, 50 μM NADPH

Molecule | ICmax (concentration causing maximal inhibition) [1] | IC50 [2] | % Inhibition at ICmax [3] | % Inhibition at ICmax (25 °C, 2% DMSO, pH 8.0, 20 nM XccFPR, 95 µM DCPIP, 50 μM NADPH, listed as 2) | IC50
O=c1c2ccccc2[se]n1-c1ccccc1 [C2, 2-Phenyl-1,2-benzoselenazol-3-one(ebselen), reference compound] | 300 ± 1 µM | 27 ± 1 µM | over 90% | 95 ± 3% | 
O=[N+]([O-])c1ccc(Oc2c(Cl)cccc2Cl)cc1 [C4, 1,3-dichloro-2-(4-nitrophenoxy)benzene] |  |  | 86 ± 1% |  | 36 ± 1 µM
O=C(CSc1nc2cc(Cl)ccc2o1)Nc1cc(C(F)(F)F)cc(C(F)(F)F)c1 [C5, N-[3,5-bis(trifluoromethyl)phenyl]-2-[(5-chloro-1,3-benzoxazol-2-yl)sulfanyl]acetamide] |  |  |  |  | 46 ± 1 µM
CC(C)N(C(=O)c1ccc(-c2ccccc2F)cc1)C(C)C [C6, 4-(2-fluorophenyl)-N,N-bis(propan-2-yl)benzamide] |  |  | ~70% |  | > 605 µM
C#CC1(NC(=O)NCCCCCCNC(=O)NC2(C#C)CCCCC2)CCCCC1 [C7, 3-(1-ethynylcyclohexyl)-1-(6-{[(1-ethynylcyclohexyl)carbamoyl]amino}hexyl) urea] |  |  | 97 ± 7% |  | 85 ± 16 µM
Clc1ccc2sc(SCc3ccccc3)nc2c1 [C8, 2-(benzylsulfanyl)-5-chloro-1,3-benzothiazole] |  |  | 88 ± 9% |  | 79 ± 1 µM
Cc1oc(C(=O)NNC(=O)Nc2cccc(C(F)(F)F)c2)nc1-c1ccccc1 [C9, 5-methyl-4-phenyl-N-({[3-(trifluoromethyl)phenyl]carbamoyl}amino)-1,3-oxazole-2-carboxamide] |  |  | 60 ± 4% |  | 147 ± 1 µM
Nc1c(Cl)cc(C(=O)Nc2cc(Cl)c(Cl)cc2Cl)cc1Cl [C10, 4-amino-3,5-dichloro-N-(2,4,5-trichlorophenyl)benzamide] |  |  | 57 ± 7% |  | 98 ± 1 µM
COc1cc(C2SCCS2)cc([N+](=O)[O-])c1OS(=O)(=O)c1cc(Cl)ccc1Cl [C11, 4-(1,3-dithiolan-2-yl)-2-methoxy-6-nitrophenyl 2,5-dichlorobenzene-1-sulfonate] |  |  | 92 ± 5% |  | 78 ± 1 µM
N#CC(NCc1ccccc1)c1ccc(Cl)c(Cl)c1 (stereo not shown) [C13, 2-(benzylamino)-2-(3,4-dichlorophenyl)acetonitrile] |  |  | 80 ± 3% |  | 95 ± 1 µM
CCOC(=O)c1c(C)c(C#N)c(NC(=O)c2ccccc2)n1-c1ccccc1 [C14, ethyl 5-benzamido-4-cyano-3-methyl-1-phenyl-1H-pyrrole-2-carboxylate] |  |  | 85 ± 4% |  | 127 ± 1 µM
O=C(CCn1c(=O)oc2ccccc21)Sc1ccc(Cl)cc1Cl [C15, 3-{3-[(2,4-dichlorophenyl)sulfanyl]-3-oxopropyl}-2,3-dihydro-1,3-benzoxazol-2-one] |  |  |  |  | 30 ± 1 µM
COc1ccc(C(C)=O)cc1CO/N=C1\CSCc2ccccc21 [C16, 1-{3-[({[(4Z)-3,4-dihydro-1H-2-benzothiopyran-4-ylidene]amino}oxy)methyl]-4-methoxyphenyl}ethan-1-one] |  |  | 79 ± 6% |  | 58 ± 1 µM
Cn1cc(Br)c(/C=N/Nc2ccc(Cl)cc2Cl)n1 [C17, 4-bromo-3-[(1E)-[2-(2,4-dichlorophenyl)hydrazin-1-ylidene]methyl]-1-methyl-1H-pyrazole] |  |  |  |  | 27 ± 2 µM
Nc1ccccc1Sc1cc(C(F)(F)F)cc([N+](=O)[O-])c1Sc1ccccc1N [C18, 2-({2-[(2-aminophenyl)sulfanyl]-6-nitro-4-(trifluoromethyl)phenyl}sulfanyl)aniline] |  |  |  |  | 24 ± 1 µM
Cc1nc(-c2cc(C#N)c(SCCNS(=O)(=O)c3cccc(C(F)(F)F)c3)nc2C)cs1 [C19, N-(2-{[3-cyano-6-methyl-5-(2-methyl-1,3-thiazol-4-yl)pyridin-2-yl]sulfanyl}ethyl)-3-(trifluoromethyl)benzene-1-sulfonamide] |  |  |  |  | 17 ± 1 µM
Cc1cc(C)c2cc(C(=O)Nc3ccc4c(c3)OCO4)[nH]c2c1 [C20, N-(2H-1,3-benzodioxol-5-yl)-4,6-dimethyl-1H-indole-2-carboxamide] |  |  | 100 ± 1% |  | 53 ± 2 µM
CCOC(=O)C1=C(C)NC(C)=C(C(=O)OCC)C1c1ccc(-c2cc(C(F)(F)F)ccc2Cl)o1 [C21, 3,5-diethyl 4-{5-[2-chloro-5-(trifluoromethyl)phenyl]furan-2-yl}-2,6-dimethyl-1,4-dihydropyridine-3,5-dicarboxylate] |  |  | 62 ± 7% |  | 14 ± 1 µM
O=C1/C(=C/c2cccs2)CCC/C1=C\c1cccs1 [C22, (2E,6E)-2,6-bis[(thiophen-2-yl)methylidene]cyclohexan-1-one] |  |  | 100 ± 4% |  | 58 ± 2 µM

Molecule | ICmax (concentration causing maximal inhibition) [1] | IC50 [2] | % Inhibition at ICmax [3] | % Inhibition at ICmax (25 °C, 2% DMSO, pH 8.0, 20 nM XccFPR, 95 µM DCPIP, 50 μM NADPH, listed as 2) | IC50
N#CC(C#N)=C1SC=C(c2ccc(Cl)cc2)S1 [C23, 2-[4-(4-chlorophenyl)-2H-1,3-dithiol-2-ylidene]propanedinitrile] |  |  | 73 ± 3% |  | > 604 µM
Cc1ccc(C)c(CSc2nc(C3CCCCC3)c(C#N)c(=O)[nH]2)c1 [C24, 4-cyclohexyl-2-{[(2,5-dimethylphenyl)methyl]sulfanyl}-6-oxo-1,6-dihydropyrimidine-5-carbonitrile] |  |  | 43 ± 4% |  | 35 ± 1 µM
O=C(O/N=C/Nc1ncc(-c2ccc(Br)s2)s1)c1ccc([N+](=O)[O-])cc1 [C25, (E)-({[5-(5-bromothiophen-2-yl)-1,3-thiazol-2-yl]amino}methylidene)amino 4-nitrobenzoate] |  |  | ~91% |  | 91 ± 1 µM
COC(=O)c1sccc1NC(=O)Cc1cccs1 [C26, methyl 3-[2-(thiophen-2-yl)acetamido]thiophene-2-carboxylate] |  |  |  |  | 33 ± 2 µM
CC(C)S(=O)(=O)c1c(SCC#N)sc(C#N)c1N [C27, 3-amino-5-[(cyanomethyl)sulfanyl]-4-(propane-2-sulfonyl)thiophene-2-carbonitrile] |  |  | 92 ± 3% |  | 89 ± 1 µM
CCCCc1ccc(NC(=O)CSc2nc(C3CCCCC3)c(C#N)c(=O)[nH]2)c(C)c1 [C28, N-(4-butyl-2-methylphenyl)-2-[(5-cyano-4-cyclohexyl-6-oxo-1,6-dihydropyrimidin-2-yl)sulfanyl]acetamide] |  |  | 81 ± 2% |  | > 652 µM
O=C(Nc1ccccc1-c1nc(-c2ccc(Cl)cc2)no1)C(F)(F)F [C29, N-{2-[3-(4-chlorophenyl)-1,2,4-oxadiazol-5-yl]phenyl}-2,2,2-trifluoroacetamide] |  |  | 27 ± 2% |  | 11 ± 2 µM
O=C(O)c1c2c(nc3ccccc13)CSc1ccc(Cl)cc1-2 [C30, 2-chloro-6H-5-thia-7-azatetraphene-12-carboxylic acid] |  |  |  |  | 29 ± 1 µM
Brc1csc(C2SCCS2)c1 [C31, 2-(4-bromothiophen-2-yl)-1,3-dithiolane] |  |  | 85 ± 1% |  | 90 ± 1 µM
Cc1ccc2oc(=O)n(CCC(=O)NNC(=O)c3nc(-c4cccs4)no3)c2c1 [C32, 3-(5-methyl-2-oxo-2,3-dihydro-1,3-benzoxazol-3-yl)-N'-[3-(thiophen-2-yl)-1,2,4-oxadiazole-5-carbonyl]propanehydrazide] |  |  | ~56% |  | > 2720 µM
CCOC(=O)CNC(=O)CCc1cc(OC)c(OC)c(OC)c1 [C33, ethyl 2-[3-(3,4,5-trimethoxyphenyl)propanamido]acetate] |  |  | ~53% |  | > 1920 µM
N#CC1=C(N)OC2=C(COc3ccc(F)cc32)C1c1ccc(Cl)cc1 (stereo not shown) [C34, 2-amino-4-(4-chlorophenyl)-9-fluoro-4H,5H-pyrano[3,2-c]chromene-3-carbonitrile] |  |  | ~87% |  | 210 ± 1 µM
O=C(COC(=O)c1cccc(I)c1)c1ccccc1 [C35, 2-oxo-2-phenylethyl 3-iodobenzoate] |  |  | 100 ± 1% |  | 63 ± 1 µM
O=C(Nc1cccc(Cl)c1)Nc1ccccc1NS(=O)(=O)c1cccs1 [D1, 3-(3-chlorophenyl)-1-[2-(thiophene-2-sulfonamido)phenyl]urea] |  |  | 98 ± 1% |  | 76 ± 1 µM
O=C(Nc1cccc(Cl)c1)Nc1ccc(F)c(Cl)c1 [D3, 1-(3-Chloro-4-fluoro-phenyl)-3-(3-chloro-phenyl)-urea] |  |  |  |  | > 5000 µM
CSc1sc(NC(=O)N2CCOCC2)c(-c2ccc(Cl)cc2)c1C#N [D4, N-[3-(4-chlorophenyl)-4-cyano-5-(methylsulfanyl)thiophen-2-yl]morpholine-4-carboxamide] |  |  | 78 ± 2% |  | 113 ± 1 µM
CSc1sc(C(=O)O)c(-c2cccc(Cl)c2)c1C#N [D6, 3-(3-chlorophenyl)-4-cyano-5-(methylsulfanyl)thiophene-2-carboxylic acid] |  |  |  |  | > 1500 µM
Cc1cccc(C)c1NC(=O)Nc1cccs1 [D7, 1-(2,6-dimethylphenyl)-3-thiophen-2-ylurea] |  |  | 84 ± 1% |  | 151 ± 1 µM
benzalkonium chloride [C3, reference compound] | 300 ± 3 µM | 190 ± 1 µM | 31 ± 8% |  | 
